Assay results taken from patent EP4650362A1, “NEUROPROTECTIVE PSD-95 POLYPEPTIDE INHIBITOR AND USE THEREOF” (Beijing Tuo Jie Biopharmaceutical Co. Ltd., priority 2023, dated 2024).
Several values for one entry are separate records, joined by “and”; a condition that tells them apart may be missing. Equal values may be shown once. Values belong to the compound of their own block, whether it stands above or below them.

Assays:
[1] = plasma stability test, rat plasma; type: in vitro ADME; details: 2 µM (test control)
Procedure: (§1) This test example assessed the in vitro stability of polypeptide compounds in rat and human plasma, and is divided into two parts: 1) the stability of the individual polypeptide compounds in rat and human plasma; and 2) the stability of the polypeptide compounds in rat and human plasma when the polypeptide compounds are administered simultaneously with alteplase (rt-PA).
(§2) Solution preparation: An appropriate amount of a test polypeptide compound was weighed out and dissolved in an appropriate amount of 1× PBS to form a 1 mM test solution. NA-1 and NoNO42 were used as positive drugs, propantheline bromide was used as a human plasma test control, and lovastatin was used as a rat plasma test control.
(§3) Plasma stability test: 12.5 µL of the 1 mM test solution was added to a 495 µL pre-incubated plasma sample. The prepared plasma sample was added to centrifuge tubes of different incubation times (0 min, 10 min, 20 min, 30 min, 60 min, and 120 min) (50 µL/tube), and the tubes were then incubated in a water bath at 37 °C with shaking at 60 rpm. For each incubation time, two parallel samples were set. Subsequently, 200 µL of stop solution was added to stop the incubation, and the mixtures were vortexed for 5 min. Then the mixtures were centrifuged at 10,000 rpm at 4 °C for 10 min to remove the protein in the sample, and 70 µL of the supernatant was transferred to a new 96-well plate (70 µL of water was added to each well beforehand) and well mixed.
(§4) The remaining compound content at each time point was determined by LC-MS/MS, and the relative remaining compound contents at the other time points were calculated with the content at 0 min as a standard (100%).
(§5) Sample pretreatment: A 30 µL plasma sample was taken and added to 120 µL of a 5% solution of formic acid in methanol containing 1 ng/mL internal standard (verapamil). The mixture was vortexed for 5 min and centrifuged at low temperature at 10,000 rpm for 10 min. 70 µL of the supernatant was taken, and 70 µL of a 0.1% aqueous solution of formic acid was added and well mixed, and the mixture was injected into an LC-MS system for analysis.
(§6) LC-MS analysis: (1) Chromatographic conditions: mobile phase A: 0.1% formic acid in water; mobile phase B: 0.1% formic acid in acetonitrile; flow rate: 0.5 mL/min; injection volume: 10 µL; chromatography column: nanomicro Unisil C18aq (4.6 mm × 150 mm, 5 µm); column temperature: 40 °C. (2) Mass-spectrometric conditions: The mass spectrometry analysis used an electrospray ionization (ESI) source, a positive ion analysis mode, and a multi-reaction monitoring (MRM) scan mode. The experimental results are shown in Table 4-1, Table 4-2, FIG. 2A, FIG. 2B, FIG. 2C, and FIG. 2D. Table 4-1. The plasma stability of the polypeptide compound

[2] = plasma stability test, human plasma; type: in vitro ADME; details: 2 µM (test control)
Procedure: as §1, §2, §3, §4, §5, §6

Biotin-PDZ2 (human) [3] = assay: binding ELISA; ratio of EC50 on Biotin-PDZ3 to EC50 on Biotin-PDZ2
[4] = target: human PSD95-PDZ2 (the tag was removed by TEV enzyme) (human) (UniProt P78352); assay: competitive ELISA; NA-1 reference value printed with compound 15; competitor Biotin-NA-1 at 0.3 µM
[5] = target: human PSD95-PDZ2 (the tag was removed by TEV enzyme) (human) (UniProt P78352); assay: competitive ELISA; NA-1 reference value printed with compound 22; competitor Biotin-NA-1 at 0.3 µM
[6] = target: human PSD95-PDZ2 (the tag was removed by TEV enzyme) (human) (UniProt P78352); assay: competitive ELISA; NA-1 reference value printed with compound 16; competitor Biotin-NA-1 at 0.3 µM
Biotin-PDZ2 (human) [7] = assay: binding ELISA; peptide coated at 2 µM, Biotin-PDZ2 titrated
[8] = target: human PSD95-PDZ2 (the tag was removed by TEV enzyme) (human) (UniProt P78352); assay: competitive ELISA; NA-1 reference value printed with compound 17; competitor Biotin-NA-1 at 0.3 µM
PDZ2 = details: Science, 2002, 298:846-50; cited from earlier work

Sequence of human PSD95-PDZ2 (the tag was removed by TEV enzyme) (human) (P78352 155-249 limits assumed): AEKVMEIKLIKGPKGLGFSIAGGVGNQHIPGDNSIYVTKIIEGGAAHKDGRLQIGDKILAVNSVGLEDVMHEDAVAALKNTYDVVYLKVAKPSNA

Relative remaining compound content (%) ([1]; 0min (standard 100%)): 100.0%
Relative remaining compound content (%) ([1]; 10min): 8.5% and 9.6%
Relative remaining compound content (%) ([1]; 20min): 1.8% and 2.1%
Relative remaining compound content (%) ([1]; 30min): 0.7% and 0.9%
Compound: CC[C@H](C)C(=O)O[C@H]1C[C@@H](C)C=C2C=C[C@H](C)[C@H](CC[C@@H]3C[C@@H](O)CC(=O)O3)[C@H]21 [Lovastatin]

Relative remaining compound content (%) ([2]; 0min (standard 100%)): 100.0%
Relative remaining compound content (%) ([2]; 10min): 80.2% and 84.0%
Relative remaining compound content (%) ([2]; 20min): 71.5% and 66.8%
Relative remaining compound content (%) ([2]; 30min): 63.4% and 53.4%
Relative remaining compound content (%) ([2]; 60min): 42.7% and 26.4%
Relative remaining compound content (%) ([2]; 120min): 10.9% and 7.2%
Compound: CC(C)[N+](C)(CCOC(=O)C1c2ccccc2Oc2ccccc21)C(C)C [Propantheline bromide]

Compound: NA-1 (peptide)
Specificity for PDZ2 (PDZ3/PDZ2) (Biotin-PDZ2 (human) [3]): > 10000
IC50 [4]: 872 nM
IC50 [5]: 517 nM
IC50 [6]: 872 nM
EC50 (Biotin-PDZ2 (human) [7]): 83 nM
IC50 [8]: 872 nM

Compound: YGRKKRRQRRRKLSSIEADA (source 1..20: note = NA-1(ADA)) [negative control, mutant of NA-1 obtained by mutating the amino acids at positions 0 and -2 into Ala]
ability to bind to PDZ2 (PDZ2): no ability to bind to PDZ2
